Assay results published in patent US11566007B2, “Ras inhibitors” (Revolution Medicines, Inc., priority 2019, dated 2023).

How the values were obtained:
[1] = tested on: NCI-H358 cells (K-Ras G12C); assay: Potency assay: pERK in NCI-H358 cells; format: cell-based, human; settings: Homo sapiens, NCI-H358; H358 KRAS G12C; read-out: pERK EC50
Method in brief: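 Inhibition of cellular pERK after a 4 h treatment, detected by AlphaLISA or In-Cell Western. IC50 from a four-parameter concentration-response fit.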

KRAS WT = KRAS WT (Homo sapiens (Human), UniProt P01116+P62937); assay: Ras-Raf (BRAF RBD) disruption / FRET / MOA assay, KRAS WT; format: biochemical; settings: read-out: IC50* KRAS WT FRET data
Chain of KRAS WT (P01116-2 other isoform, or with tags, fused parts or gaps): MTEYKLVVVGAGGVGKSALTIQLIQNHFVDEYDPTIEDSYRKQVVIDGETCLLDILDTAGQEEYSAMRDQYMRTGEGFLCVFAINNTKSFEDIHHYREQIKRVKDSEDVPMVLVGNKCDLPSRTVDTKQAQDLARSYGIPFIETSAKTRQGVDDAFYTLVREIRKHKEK
Chain of KRAS WT (P62937 whole entry): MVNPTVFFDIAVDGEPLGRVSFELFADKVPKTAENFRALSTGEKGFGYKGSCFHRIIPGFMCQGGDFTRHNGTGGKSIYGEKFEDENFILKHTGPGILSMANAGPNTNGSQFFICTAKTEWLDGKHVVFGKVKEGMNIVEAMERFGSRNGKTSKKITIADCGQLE
Method in brief: (§1)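 TR-FRET read-out: a drop in ratio relative to DMSO wells marks disruption of the Ras:RAF complex, reported as IC50. Compounds (3-fold series, 10 points, top 30 μM final) incubated 3 h at 25° C before Eu-anti-His 10 nM and APC-anti-GST 50 nM, 1.5 h more.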

NCI-H358 (K-Ras G12C) = assay: CellTiter-Glo cell viability assay, NCI-H358; format: cell-based, human; settings: Homo sapiens, NCI-H358, 120 h, NCI-H358, 5-day treatment; class symbols; read-out: Additional H358 Cell Viability assay data (K-Ras G12C, IC50)
Method in brief: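 Steps: compound dispensed into wells holding cells; incubation to day 5; ~30 min room-temperature equilibration; luminescence read; sample signal divided by mean DMSO signal, times 100; four-parameter logistic curve fit.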

NRAS G12C = NRAS G12C (Homo sapiens (Human), UniProt P01111+P62937, G12C); assay: Ras-Raf (BRAF RBD) disruption / FRET / MOA assay, NRAS G12C; format: biochemical; settings: read-out: IC50* NRAS G12C FRET data
Chain of NRAS G12C (P01111 whole entry G12C): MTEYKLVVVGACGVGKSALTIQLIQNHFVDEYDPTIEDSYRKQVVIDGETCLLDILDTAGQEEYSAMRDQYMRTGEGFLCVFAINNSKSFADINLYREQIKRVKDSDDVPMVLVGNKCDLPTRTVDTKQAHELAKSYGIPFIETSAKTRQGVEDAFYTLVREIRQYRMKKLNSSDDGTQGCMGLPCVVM
Chain of NRAS G12C (P62937 whole entry): as the sequence (P62937 whole entry) above
Method in brief: as §1

K-Ras G13C = K-Ras G13C (Homo sapiens (Human), UniProt P01116+P62937, G13C); assay: Ras-Raf (BRAF RBD) disruption / FRET / MOA assay, KRAS G13C; format: biochemical; settings: KRAS G13C; Ras-Raf disruption/FRET/MOA assay; read-out: IC50* KRAS G13C FRET data
Chain of K-Ras G13C (P01116-2 other isoform, or with tags, fused parts or gaps G13C): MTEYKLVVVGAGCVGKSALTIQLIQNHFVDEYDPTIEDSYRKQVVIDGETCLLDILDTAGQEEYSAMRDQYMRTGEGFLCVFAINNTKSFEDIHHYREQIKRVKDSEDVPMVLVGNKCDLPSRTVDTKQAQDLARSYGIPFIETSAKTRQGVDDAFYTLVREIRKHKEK
Chain of K-Ras G13C (P62937 whole entry): as the sequence (P62937 whole entry) above
Method in brief: as §1

K-Ras G12C = K-Ras G12C (Homo sapiens (Human), UniProt P01116+P62937, G12C); assay: Ras-Raf (BRAF RBD) disruption / FRET / MOA assay, KRAS G12C; format: biochemical; settings: KRAS G12C; Ras-Raf disruption/FRET/MOA assay; read-out: IC50* KRAS G12C FRET data
Chain of K-Ras G12C (P01116-2 other isoform, or with tags, fused parts or gaps G12C): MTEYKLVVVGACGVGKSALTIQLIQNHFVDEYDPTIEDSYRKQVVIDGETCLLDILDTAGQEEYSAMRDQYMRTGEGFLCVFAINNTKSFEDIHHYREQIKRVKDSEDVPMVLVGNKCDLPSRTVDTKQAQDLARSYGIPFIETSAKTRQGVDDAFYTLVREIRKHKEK
Chain of K-Ras G12C (P62937 whole entry): as the sequence (P62937 whole entry) above
Method in brief: as §1

KRAS G12V = KRAS G12V (Homo sapiens (Human), UniProt P01116+P62937, G12V); assay: Ras-Raf (BRAF RBD) disruption / FRET / MOA assay, KRAS G12V; format: biochemical; settings: read-out: IC50* KRAS G12V FRET data
Chain of KRAS G12V (P01116-2 other isoform, or with tags, fused parts or gaps G12V): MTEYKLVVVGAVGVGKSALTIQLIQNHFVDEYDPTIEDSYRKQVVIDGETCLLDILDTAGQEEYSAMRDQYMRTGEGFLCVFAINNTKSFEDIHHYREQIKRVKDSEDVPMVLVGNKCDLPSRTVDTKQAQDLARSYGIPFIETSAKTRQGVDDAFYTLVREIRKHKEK
Chain of KRAS G12V (P62937 whole entry): as the sequence (P62937 whole entry) above
Method in brief: as §1

KRAS G12D = KRAS G12D (Homo sapiens (Human), UniProt P01116+P62937, G12D); assay: Ras-Raf (BRAF RBD) disruption / FRET / MOA assay, KRAS G12D; format: biochemical; settings: Ras-Raf disruption/FRET/MOA assay; class symbols; read-out: KRAS G12D FRET data IC50
Chain of KRAS G12D (P01116-2 other isoform, or with tags, fused parts or gaps G12D): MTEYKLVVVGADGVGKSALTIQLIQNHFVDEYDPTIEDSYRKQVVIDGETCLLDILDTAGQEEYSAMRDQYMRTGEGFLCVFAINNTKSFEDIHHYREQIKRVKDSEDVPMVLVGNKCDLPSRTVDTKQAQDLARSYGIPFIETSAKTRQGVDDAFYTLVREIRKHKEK
Chain of KRAS G12D (P62937 whole entry): as the sequence (P62937 whole entry) above
Method in brief: as §1

KRAS G12S = KRAS G12S (Homo sapiens (Human), UniProt P01116+P62937, G12S); assay: Ras-Raf (BRAF RBD) disruption / FRET / MOA assay, KRAS G12S; format: biochemical; settings: Ras-Raf disruption/FRET/MOA assay; class symbols; read-out: KRAS G12S FRET data IC50
Chain of KRAS G12S (P01116-2 other isoform, or with tags, fused parts or gaps G12S): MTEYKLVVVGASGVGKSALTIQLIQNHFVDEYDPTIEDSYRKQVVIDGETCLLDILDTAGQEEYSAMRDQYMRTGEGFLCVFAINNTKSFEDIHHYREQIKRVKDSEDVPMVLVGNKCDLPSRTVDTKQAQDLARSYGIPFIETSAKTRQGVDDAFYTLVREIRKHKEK
Chain of KRAS G12S (P62937 whole entry): as the sequence (P62937 whole entry) above
Method in brief: as §1

KRAS G13D = KRAS G13D (Homo sapiens (Human), UniProt P01116+P62937, G13D); assay: Ras-Raf (BRAF RBD) disruption / FRET / MOA assay, KRAS G13D; format: biochemical; settings: read-out: IC50* KRAS G13D FRET data
Chain of KRAS G13D (P01116-2 other isoform, or with tags, fused parts or gaps G13D): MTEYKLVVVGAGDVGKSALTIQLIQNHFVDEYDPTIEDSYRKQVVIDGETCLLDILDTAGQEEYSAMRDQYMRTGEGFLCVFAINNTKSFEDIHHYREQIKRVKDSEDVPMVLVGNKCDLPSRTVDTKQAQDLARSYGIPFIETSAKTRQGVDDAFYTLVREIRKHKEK
Chain of KRAS G13D (P62937 whole entry): as the sequence (P62937 whole entry) above
Method in brief: as §1

Compound	EC50 [1]	IC50 (KRAS WT)	IC50 (NCI-H358 (K-Ras G12C))	IC50 (NRAS G12C)	IC50 (K-Ras G13C)	IC50 (K-Ras G12C)	IC50 (KRAS G12V)	IC50 (KRAS G12D)	IC50 (KRAS G12S)	IC50 (KRAS G13D)
C=CC(=O)N1CC(OC(=O)N(C)[C@H](C(=O)N[C@H]2Cc3cccc(c3)-c3ccc4c(c3)c(c(-c3cccnc3[C@H](C)OC)n4CC)CC(C)(C)COC(=O)[C@@H]3CCCN(N3)C2=O)C(C)C)C1 (atropisomer, axis not shown) [Example A445]	< 5 µM	1 to 10 µM	< 0.01 µM	0.01 to 0.1 µM	0.1 to 1 µM	0.01 to 0.1 µM	1 to 10 µM	> 10 µM	1 to 10 µM	1 to 10 µM
C=CC(=O)N1CC[C@H](C(=O)N(C)[C@H](C(=O)N[C@H]2Cc3cccc(c3)-c3ccc4c(c3)c(c(-c3cc5c(nc3[C@H](C)OC)CN(C)CC5)n4CC)CC(C)(C)COC(=O)[C@@H]3CCCN(N3)C2=O)C(C)C)C1 (atropisomer, axis not shown) [Example A446]	< 5 µM	1 to 10 µM	< 0.01 µM	0.1 to 1 µM	1 to 10 µM	0.1 to 1 µM	1 to 10 µM	> 10 µM	1 to 10 µM	1 to 10 µM
CCn1c(-c2cccnc2[C@H](C)OC)c2c3cc(ccc31)-c1cccc(c1)C[C@H](NC(=O)CCOC1CN(C(=O)C#CC(C)(C)N(C)C)C1)C(=O)N1CCC[C@H](N1)C(=O)OCC(C)(C)C2 (atropisomer, axis not shown) [Example A448]	< 5 µM	> 10 µM	0.01 to 0.1 µM	0.01 to 0.1 µM	> 10 µM	0.01 to 0.1 µM	> 10 µM	> 10 µM	> 10 µM	> 10 µM
C=CC(=O)N1C[C@H](C(=O)N(C)[C@H](C(=O)N[C@H]2Cc3cccc(c3)-c3ccc4c(c3)c(c(-c3cccnc3[C@H](C)OC)n4CC)CC(C)(C)COC(=O)[C@@H]3CCCN(N3)C2=O)C(C)C)[C@@H](C)C1 (atropisomer, axis not shown) [Example A451]	< 5 µM	1 to 10 µM	0.01 to 0.1 µM	0.1 to 1 µM	0.1 to 1 µM	0.1 to 1 µM	1 to 10 µM	1 to 10 µM	1 to 10 µM	1 to 10 µM
C=CC(=O)N1CC2(C1)OCN([C@H](C(=O)N[C@H]1Cc3cccc(c3)-c3ccc4c(c3)c(c(-c3cccnc3[C@H](C)OC)n4CC)CC(C)(C)COC(=O)[C@@H]3CCCN(N3)C1=O)C(C)C)C2=O (atropisomer, axis not shown) [Example A452]	< 5 µM	0.1 to 1 µM	< 0.01 µM	0.01 to 0.1 µM	0.01 to 0.1 µM	0.01 to 0.1 µM	1 to 10 µM	> 10 µM	1 to 10 µM	1 to 10 µM
CO[C@@H](C)c1ncccc1-c1c2c3cc(ccc3n1CC(F)(F)F)-c1nc(cs1)C[C@H](NC(=O)[C@H](C(C)C)N(C)C(=O)[C@H]1CCN(C(=O)C#CC(C)(C)N3CCC3)C1)C(=O)N1CCC[C@H](N1)C(=O)OCC(C)(C)C2 (atropisomer, axis not shown) [Example A454]	< 5 µM	0.1 to 1 µM	< 0.01 µM	0.01 to 0.1 µM	0.1 to 1 µM	0.01 to 0.1 µM	1 to 10 µM	1 to 10 µM	1 to 10 µM	1 to 10 µM
C=CC(=O)N1CC[C@H](C(=O)N(C)[C@H](C(=O)N[C@H]2Cc3csc(n3)-c3ccc4c(c3)c(c(-c3cccnc3[C@H](C)OC)n4CC(F)(F)F)CC(C)(C)COC(=O)[C@@H]3CCCN(N3)C2=O)C(C)C)C1 (atropisomer, axis not shown) [Example A455]	< 5 µM	0.1 to 1 µM	0.01 to 0.1 µM	0.1 to 1 µM	0.1 to 1 µM	0.1 to 1 µM	1 to 10 µM	1 to 10 µM	0.1 to 1 µM	1 to 10 µM
CCn1c(-c2cccnc2[C@H](C)OC)c2c3cc(ccc31)-c1cc(cc(C(F)F)c1)C[C@H](NC(=O)[C@H](C1CCCC1)N(C)C(=O)[C@H]1CCN(C(=O)C#CC(C)(C)N3CCC3)C1)C(=O)N1CCC[C@H](N1)C(=O)OCC(C)(C)C2 (atropisomer, axis not shown) [Example A456]	< 5 µM	1 to 10 µM	< 0.01 µM	0.01 to 0.1 µM	1 to 10 µM	0.01 to 0.1 µM	1 to 10 µM	1 to 10 µM	1 to 10 µM	1 to 10 µM
C=CC(=O)N1CCC2(CC1)OCN([C@H](C(=O)N[C@H]1Cc3cccc(c3)-c3ccc4c(c3)c(c(-c3cccnc3[C@H](C)OC)n4CC)CC(C)(C)COC(=O)[C@@H]3CCCN(N3)C1=O)C(C)C)C2=O (atropisomer, axis not shown) [Example A457]	< 5 µM	0.1 to 1 µM	0.01 to 0.1 µM	0.1 to 1 µM	0.1 to 1 µM	0.1 to 1 µM	1 to 10 µM	> 10 µM	1 to 10 µM	1 to 10 µM
C=CC(=O)N1C[C@@H](C(=O)N(C)[C@H](C(=O)N[C@H]2Cc3cccc(c3)-c3ccc4c(c3)c(c(-c3cccnc3[C@H](C)OC)n4CC)CC(C)(C)COC(=O)[C@@H]3CCCN(N3)C2=O)C(C)C)C(C)(C)C1 (atropisomer, axis not shown) [Example A458]	< 5 µM	1 to 10 µM	0.01 to 0.1 µM	0.01 to 0.1 µM	0.1 to 1 µM	0.01 to 0.1 µM	1 to 10 µM	> 10 µM	1 to 10 µM	1 to 10 µM
C=CC(=O)N1CC(OC[C@H](C(=O)N[C@H]2Cc3nc(cs3)-c3ccc4c(c3)c(c(-c3cccnc3[C@H](C)OC)n4CC)CC(C)(C)COC(=O)[C@@H]3CCCN(N3)C2=O)C(C)C)C1 (atropisomer, axis not shown) [Example A462]	< 5 µM	1 to 10 µM	< 0.01 µM	0.1 to 1 µM	1 to 10 µM	0.1 to 1 µM	1 to 10 µM	> 10 µM	1 to 10 µM	> 10 µM
C=CC(=O)N1CC(C(=O)N(C)[C@H](C(=O)N[C@H]2Cc3cccc(c3)-c3ccc4c(c3)c(c(-c3cccnc3[C@H](C)OC)n4CC)CC(C)(C)COC(=O)[C@@H]3CCCN(N3)C2=O)C(C)C)C1 (atropisomer, axis not shown) [Example A467]	< 5 µM	> 10 µM	0.01 to 0.1 µM	0.1 to 1 µM	1 to 10 µM	1 to 10 µM	> 10 µM	> 10 µM	> 10 µM	> 10 µM
C=CC(=O)N1CC[C@H](C(=O)N(C)[C@H](C(=O)N[C@H]2Cc3cccc(c3)-c3ccc4c(c3)c(c(-c3cccnc3[C@H](C)OC)n4CC)CC(C)(C)COC(=O)[C@@H]3CCCN(N3)C2=O)C2COC2)C1 (atropisomer, axis not shown) [Example A469]	< 5 µM	1 to 10 µM	0.1 to 1 µM	0.1 to 1 µM	1 to 10 µM	0.1 to 1 µM	1 to 10 µM	> 10 µM	1 to 10 µM	1 to 10 µM
C=CC(=O)N1CC[C@]2(CCN([C@H](C(=O)N[C@H]3Cc4cccc(c4)-c4ccc5c(c4)c(c(-c4cccnc4[C@H](C)OC)n5CC)CC(C)(C)COC(=O)[C@@H]4CCCN(N4)C3=O)C(C)C)C2=O)C1 (atropisomer, axis not shown) [Example A470]	< 5 µM	1 to 10 µM	0.01 to 0.1 µM	0.1 to 1 µM	0.1 to 1 µM	0.1 to 1 µM	1 to 10 µM	1 to 10 µM	0.1 to 1 µM	1 to 10 µM
